Test system: Transport facilitation protein genes
Experiment: DNA chip mRNA expression in yeast, transport facilitation protein genes (Table 5)
Assay type: cell-based, Saccharomyces cerevisiae S288C
Method: Yeast (Saccharomyces cerevisiae S288C (α SUC2mal mel gap2 CUP1)) were incubated at 25° C. on YPD medium (yeast extract 1%, polypepton 2%, glucose 2%). One of toxic chemical substances was added to the cells at logarithmic growth phase, and the cells were further incubated for two hours. Cells were cultured without any chemical substance in the same condition, and were used as control. Concentrations of the chemical substances were defined to inhibit the growth of the yeast but not lead to death.
After completion of the incubation, the culture was centrifuged to collect the cells. To the cells, sodium acetate buffer (50 mM sodium acetate, 10 mM EDTA, 1% SDS) was added, and the mixture was shaken at 65° C. for five minutes, followed by returning to room temperature, and obtaining the supernatant, of which the procedures were repeated two times. To the supernatant, ½ amount of a solution of phenol/chloroform was added, and the mixture was centrifuged to give a supernatant, which was added with an equal amount of chloroform, and the mixture was centrifuged to give a supernatant. To the supernatant, an equal amount of isopropanol containing 0.3 M sodium acetate was added, and the mixture was allowed to stand at room temperature for 30 minutes, after which the mixture was centrifuged to give a sediment of the whole RNAs. Seventy % ethanol was added to the sediment, and the mixture was again centrifuged to give a sediment, which was then dried and dissolved in water. mRNA was isolated from the whole RNAs as followings. In view of the fact that a poly A chain is attached to the 3′ terminus of mRNA, a polynucleotide having a poly T structure which was immobilized on the surface of latex beads was used to trap the mRNA, and then the mRNA was washed and eluted with spine column (Oligotex-dT30<Super>mRNA Purification Kit, Takara). Reverse transcription of the mRNA was conducted with a reverse transcriptase (Super Script II Reverse Transcriptase; catalogue No. 18064-014, GibcoBRL) using fluorescence-labeled nucleotides to give cDNAs that were introduced with Cy3-dUTP or Cy5-dUTP during the reverse transcription.
The labeled cDNAs were dissolved in TE buffer (10mM Tris-HCl/1 mM EDTA, pH8.0), and the solution was dropped on the DNA chip containing the whole genes of yeast (DNA Chip Research Inc. Japan) so that the cDNAs were hybridized on the DNA chip at 65° C. for over 12 hours. The fluoresces intensity of the DNA chip was read with a scanner, and the ratio relative to the fluorescence intensity resulting from the absence of chemical substance was estimated as the following, which is shown in Tables 1 to 9: […]

Measured: The level of expressed mRNA in the presence of chemical substance/The level of expressed mRNA in the absence of chemical substance

[Cl][Cd][Cl] [(2), CdCl2]
3.2: yeast gene YJL212C | yeast gene YOL163W | yeast gene YPL271W
4.5: yeast gene YLR348C
1.8: yeast gene YER053C | yeast gene YNL055C
3.5: yeast gene YKR039W
1.5: yeast gene YBR295W | yeast gene YDR270W | yeast gene YGR065C | yeast gene YNR072W
0.5: yeast gene YDR497C
2.4: yeast gene YDL245C | yeast gene YGR197C
2.6: yeast gene YKR067W
2.2: yeast gene YDL210W
2.0: yeast gene YGL104C | yeast gene YHR175W
4.9: yeast gene YHL040C
1.9: yeast gene YBR132C
1.2: yeast gene YDR298C | yeast gene YGR224W | yeast gene YHR094C | yeast gene YOR035C
4.4: yeast gene YHL047C
4.8: yeast gene YOL119C
2.5: yeast gene YJL219W | yeast gene YOR316C
3.8: yeast gene YEL065W | yeast gene YJR106W
2.1: yeast gene YIL088C
0.6: yeast gene YEL027W
5.7: yeast gene YGR055W
3.0: yeast gene YCR098C
14.4: yeast gene YBR294W
0.8: yeast gene YEL063C | yeast gene YLR081W | yeast gene YPL036W
1.7: yeast gene YBR207W | yeast gene YJL034W | yeast gene YOR130C
0.9: yeast gene YBL030C | yeast gene YBL099W | yeast gene YCR024C-A | yeast gene YDR345C | yeast gene YDR387C | yeast gene YGL255W | yeast gene YGR082W | yeast gene YIL056W | yeast gene YLL028W | yeast gene YLR378C | yeast gene YOR153W
1.4: yeast gene YPR194C
0.7: yeast gene YBR127C | yeast gene YFL011W | yeast gene YGL008C | yeast gene YGL167C | yeast gene YGR191W | yeast gene YGR260W | yeast gene YIL022W | yeast gene YMR203W | yeast gene YOL156W | yeast gene YOR348C
1.6: yeast gene YBR052C | yeast gene YCL038C | yeast gene YDR039C | yeast gene YFL041W | yeast gene YGR138C
1.3: yeast gene YDR038C | yeast gene YGL006W | yeast gene YHL035C | yeast gene YKL016C | yeast gene YKL146W
1.0: yeast gene YBR068C | yeast gene YBR298C | yeast gene YCR037C | yeast gene YDL198C | yeast gene YDR086C | yeast gene YDR343C | yeast gene YFL050C | yeast gene YGR096W | yeast gene YGR281W | yeast gene YHR026W | yeast gene YHR092C | yeast gene YMR011W | yeast gene YOR273C | yeast gene YOR328W | yeast gene YOR332W | yeast gene YPL134C
4.6: yeast gene YCL025C
1.1: yeast gene YDL128W | yeast gene YDR342C | yeast gene YFL054C | yeast gene YIL006W | yeast gene YJR077C | yeast gene YJR121W | yeast gene YLR295C | yeast gene YMR162C | yeast gene YPR192W
3.1: yeast gene YBR293W
